Measured values published in ChEMBL document CHEMBL5537193, “Multitargeting HDAC Inhibitors Containing a RAS/RAF Protein Interfering Unit” (J Med Chem, 2024).
Activity calls are given as the source filed them. No cut-off for these calls is given here.

Tests used:
[1] = system: HT-29; test: Effect on ERK1/2 protein expression in human HT-29 cells at 2 uM incubated for 24 hrs by Western blot analysis; assay type: functional, cell-based
[2] = system: HepG2; test: cells; details: Homo sapiens, HepG2, 72 h
Description: Cytotoxicity against human HepG2 cells assessed as inhibition of cell growth incubated for 72 hrs by MTT assay

[3] = system: PANC-1; test: cells; details: Homo sapiens, PANC-1, 72 h
Description: Cytotoxicity against human PANC-1 cells assessed as inhibition of cell growth incubated for 72 hrs by MTT assay

[4] = Metabolic stability in mouse liver microsomes assessed as half-life at 1 uM measured upto 40 mins by LC-MS/MS analysis; assay type: ADME, Microsome
[5] = MRT (0 to t) in Sprague-Dawley rat at 15 mg/kg, ip measured after 24 hrs by LC-MS/MS analysis; assay type: ADME, organism-based; details: in vivo
[6] = system: PANC-1; test: Inhibition of MAPK signaling pathway in human PANC-1 cells assessed as inhibition of C-RAF phosphorylation at Ser338 residue at 2 uM incubated for 24 hrs by Western blot analysis; assay type: cell-based
[7] = system: HT-29; test: Antitumor activity against human HT-29 xenografted in BALB/c nude mouse assessed as tumor growth inhibition at 15 mg/kg, ip administered once every 2 days for 12 times for 24 days relative to control; assay type: functional; details: HT-29, 576 h, time 24 day, read-out: TGI
[8] = system: HT-29; test: Antitumor activity against human HT-29 xenografted in BALB/c nude mouse assessed as tumor growth inhibition at 7.5 mg/kg, ip administered once every 2 days for 12 times for 24 days relative to control; assay type: functional; details: HT-29, 576 h, time 24 day, read-out: TGI
[9] = system: PANC-1; test: Cell cycle arrest in human PANC-1 cells assessed as accumulation of cells at G2-M phase at 2 uM incubated for 24 hrs by PI/RNase staining based flow cytometric analysis; assay type: functional
[10] = Toxicity in BALB/c nude mouse xenografted with human HT-29 cells assessed as change in heart histopathology at 10 to 15 mg/kg, ip administered once daily for 24 days by H&E staining based analysis; assay type: organism-based; details: in vivo, 576 h, dose 10-15 mg/kg, time 24 day
[11] = system: PANC-1; test: Induction of apoptosis in human PANC-1 cells assessed as increase in Cytochrome C expression level at 2 uM incubated for 24 hrs by Western blot analysis; assay type: functional, cell-based
[12] = Toxicity in BALB/c nude mouse xenografted with human HT-29 cells assessed as change in spleen histopathology at 10 to 15 mg/kg, ip administered once daily for 24 days by H&E staining based analysis; assay type: organism-based; details: in vivo, 576 h, dose 10-15 mg/kg, time 24 day
[13] = system: PANC-1; test: Inhibition of MAPK signaling pathway in human PANC-1 cells assessed as inhibition of MEK phosphorylation at 2 uM incubated for 24 hrs by Western blot analysis; assay type: cell-based
[14] = system: PANC-1; test: Effect on Histone H3 expression in human PANC-1 cells at 2 uM incubated for 24 hrs by Western blot analysis; assay type: functional, cell-based
[15] = Metabolic stability in rat liver microsomes assessed as half-life at 1 uM measured upto 40 mins by LC-MS/MS analysis; assay type: ADME, Microsome
[16] = molecular target: Histone deacetylase 4 (Homo sapiens, UniProt P56524); test: Inhibition of HDAC4 (unknown origin)
Sequence of Histone deacetylase 4 (P56524 whole entry): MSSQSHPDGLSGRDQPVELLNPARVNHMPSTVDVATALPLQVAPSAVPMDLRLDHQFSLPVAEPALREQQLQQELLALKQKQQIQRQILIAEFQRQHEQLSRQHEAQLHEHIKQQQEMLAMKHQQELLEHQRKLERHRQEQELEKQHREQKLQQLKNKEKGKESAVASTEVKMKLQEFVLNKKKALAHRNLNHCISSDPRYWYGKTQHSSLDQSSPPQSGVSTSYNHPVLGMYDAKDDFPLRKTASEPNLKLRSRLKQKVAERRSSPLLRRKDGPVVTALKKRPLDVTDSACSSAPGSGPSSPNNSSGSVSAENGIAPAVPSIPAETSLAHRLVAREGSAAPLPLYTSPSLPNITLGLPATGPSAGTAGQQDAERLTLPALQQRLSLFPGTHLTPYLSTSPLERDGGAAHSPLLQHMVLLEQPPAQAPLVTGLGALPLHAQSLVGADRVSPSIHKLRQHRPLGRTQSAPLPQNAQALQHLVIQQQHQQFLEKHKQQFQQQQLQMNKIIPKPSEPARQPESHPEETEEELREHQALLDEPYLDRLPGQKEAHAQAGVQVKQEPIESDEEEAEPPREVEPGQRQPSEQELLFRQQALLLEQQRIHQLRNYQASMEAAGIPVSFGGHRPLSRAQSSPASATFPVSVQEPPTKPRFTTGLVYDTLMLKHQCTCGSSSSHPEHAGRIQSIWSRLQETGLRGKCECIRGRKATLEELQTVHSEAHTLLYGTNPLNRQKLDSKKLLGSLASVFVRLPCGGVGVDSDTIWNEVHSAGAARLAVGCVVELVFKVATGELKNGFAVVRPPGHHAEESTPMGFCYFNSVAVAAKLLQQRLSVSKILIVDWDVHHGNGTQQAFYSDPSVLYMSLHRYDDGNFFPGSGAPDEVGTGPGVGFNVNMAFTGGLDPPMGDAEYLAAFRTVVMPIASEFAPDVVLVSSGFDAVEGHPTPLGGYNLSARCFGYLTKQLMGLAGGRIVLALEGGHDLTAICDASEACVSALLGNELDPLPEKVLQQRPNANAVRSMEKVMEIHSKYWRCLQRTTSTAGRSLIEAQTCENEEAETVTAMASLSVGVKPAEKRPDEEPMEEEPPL

[17] = system: PANC-1; test: Effect on alpha-tubulin expression in human PANC-1 cells at 2 uM incubated for 24 hrs by Western blot analysis; assay type: functional, cell-based
[18] = Half-life in Sprague-Dawley rat at 15 mg/kg, ip measured after 24 hrs by LC-MS/MS analysis; assay type: ADME, organism-based; details: in vivo
[19] = system: HT-29; test: Effect on MEK protein expression in human HT-29 cells at 2 uM incubated for 24 hrs by Western blot analysis; assay type: functional, cell-based
[20] = Toxicity in BALB/c nude mouse xenografted with human HT-29 cells assessed as change in kidney histopathology at 10 to 15 mg/kg, ip administered once daily for 24 days by H&E staining based analysis; assay type: organism-based; details: in vivo, 576 h, dose 10-15 mg/kg, time 24 day
[21] = system: HT-29; test: cells; details: Homo sapiens, HT-29, 72 h
Description: Cytotoxicity against human HT-29 cells assessed as inhibition of cell growth incubated for 72 hrs by MTT assay

[22] = system: HT-29; test: Effect on RAS protein expression in human HT-29 cells at 2 uM incubated for 24 hrs by Western blot analysis; assay type: functional, cell-based
[23] = system: A549; test: cells; details: Homo sapiens, A549, 72 h
Description: Cytotoxicity against human A549 cells assessed as inhibition of cell growth incubated for 72 hrs by MTT assay

[24] = system: HT-29; test: Antitumor activity against human HT-29 cells xenografted in BALB/c nude mouse assessed as tumor growth inhibition at 15 mg/kg, ip administered once a day for 24 days relative to control; assay type: functional; details: HT-29, 576 h, time 24 day, read-out: TGI
[25] = system: MCF7; test: cells; details: Homo sapiens, MCF7, 72 h
Description: Cytotoxicity against human MCF7 cells assessed as inhibition of cell growth incubated for 72 hrs by MTT assay

[26] = system: HT-29; test: Antitumor activity against human HT-29 cells xenografted in BALB/c nude mouse assessed as tumor growth inhibition at 7.5 mg/kg, ip administered once a day for 24 days relative to control; assay type: functional; details: HT-29, 576 h, time 24 day, read-out: TGI
[27] = system: HT-29; test: Effect on alpha-tubulin expression in human HT-29 cells at 2 uM incubated for 24 hrs by Western blot analysis; assay type: functional, cell-based
[28] = system: HT-29; test: Inhibition of MAPK signaling pathway in human HT-29 cells assessed as inhibition of MEK phosphorylation at 2 uM incubated for 24 hrs by Western blot analysis; assay type: cell-based
[29] = system: NCI-H1975; test: cells; details: Homo sapiens, NCI-H1975, 72 h
Description: Cytotoxicity against human NCI-H1975 cells assessed as inhibition of cell growth incubated for 72 hrs by MTT assay

[30] = system: HT-29; test: Induction of apoptosis in human HT-29 cells assessed as apoptotic ratio at 2 uM incubated for 24 hrs by flow cytometric analysis; assay type: functional
[31] = AUC (0 to t) in Sprague-Dawley rat at 15 mg/kg, ip measured after 24 hrs by LC-MS/MS analysis; assay type: ADME, organism-based; details: in vivo
[32] = system: K562; test: cells; details: Homo sapiens, K562, 72 h
Description: Cytotoxicity against human K562 cells assessed as inhibition of cell growth incubated for 72 hrs by MTT assay

[33] = Toxicity in BALB/c nude mouse xenografted with human HT-29 cells assessed as change in liver histopathology at 10 to 15 mg/kg, ip administered once daily for 24 days by H&E staining based analysis; assay type: organism-based; details: in vivo, 576 h, dose 10-15 mg/kg, time 24 day
[34] = system: L02; test: cells; details: Homo sapiens, L02, 72 h
Description: Cytotoxicity against human L02 cells assessed as inhibition of cell growth incubated for 72 hrs by MTT assay

[35] = system: PANC-1; test: Induction of apoptosis in human PANC-1 cells assessed as increase in Bax expression at 2 uM incubated for 24 hrs by Western blot analysis; assay type: functional, cell-based
[36] = molecular target: Serine/threonine-protein kinase PLK1 (Homo sapiens, UniProt P53350); test: Inhibition of PLK1 (unknown origin) at 10 uM relative to control
Sequence of Serine/threonine-protein kinase PLK1 (P53350 whole entry): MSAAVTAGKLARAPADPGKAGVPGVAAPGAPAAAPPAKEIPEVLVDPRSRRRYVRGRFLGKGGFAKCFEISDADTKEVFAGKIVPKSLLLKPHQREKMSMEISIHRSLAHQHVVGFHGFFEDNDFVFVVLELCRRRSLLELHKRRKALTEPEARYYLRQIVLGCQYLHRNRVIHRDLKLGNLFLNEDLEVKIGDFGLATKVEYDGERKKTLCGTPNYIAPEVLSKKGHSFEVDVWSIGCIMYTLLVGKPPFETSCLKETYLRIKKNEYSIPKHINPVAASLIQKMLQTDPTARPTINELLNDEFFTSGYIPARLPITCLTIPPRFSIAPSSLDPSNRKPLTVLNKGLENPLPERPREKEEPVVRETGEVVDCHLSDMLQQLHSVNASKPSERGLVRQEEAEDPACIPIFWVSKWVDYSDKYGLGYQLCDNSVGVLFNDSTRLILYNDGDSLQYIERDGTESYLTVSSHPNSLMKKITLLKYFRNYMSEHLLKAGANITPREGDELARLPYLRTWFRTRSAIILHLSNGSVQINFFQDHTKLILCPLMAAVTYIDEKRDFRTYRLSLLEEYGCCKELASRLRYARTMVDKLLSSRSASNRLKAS

[37] = system: HT-29; test: Effect on Histone H3 expression in human HT-29 cells at 2 uM incubated for 24 hrs by Western blot analysis; assay type: functional, cell-based
[38] = system: HT-29; test: Effect on alpha-tubulin expression in tumor of BALB/c mouse xenografted with human HT-29 cells at 7.5 to 15 mg/kg, ip administered once every 2 days for 12 times and measured after 24 days by Western blot analysis; assay type: functional, organism-based; details: Neoplasm, dose 7.5-15 mg/kg, time 24.0 day
[39] = Toxicity in BALB/c nude mouse xenografted with human HT-29 cells assessed as change in lung histopathology at 10 to 15 mg/kg, ip administered once daily for 24 days by H&E staining based analysis; assay type: organism-based; details: in vivo, 576 h, dose 10-15 mg/kg, time 24 day
[40] = system: PANC-1; test: Induction of apoptosis in human PANC-1 cells assessed as increase in cleaved PARP expression level at 2 uM incubated for 24 hrs by Western blot analysis; assay type: functional, cell-based
[41] = system: PANC-1; test: Effect on ERK1/2 protein expression in human PANC-1 cells at 2 uM incubated for 24 hrs by Western blot analysis; assay type: functional, cell-based

IC50 [2]: 990 nM
IC50 [3]: 50 nM
half-life at 1 µM [4]: 28.6 min
MRT last at 24 h [5]: 80.4 min
half-life at 1 µM [15]: 5.52 min
IC50 [16]: 75 nM
half-life [18]: 46.3 min
IC50 [21]: 40 nM
IC50 [23]: 90 nM
IC50 [25]: 240 nM
IC50 [29]: 50 nM
AUC(0-t) at 24 h [31]: 5190 ng·h/mL
IC50 [32]: 20 nM
inhibition [36]: 100%
SMILES: COc1cc(OC)c(/C=C/S(=O)(=O)Cc2ccc(OC)c(NCC(=O)NO)c2)c(OC)c1
Activity [1]: inactive
inhibition [6]: Active
inhibition in vivo at 15 mg/kg [7]: 75.2%
inhibition in vivo at 7.5 mg/kg [8]: 64.3%
Activity [9]: Active
Activity [10]: Non-Toxic
Activity [11]: Active
Activity [12]: Non-Toxic
inhibition [13]: Active
Activity [14]: inactive
Activity [17]: inactive
Activity [19]: inactive
Activity [20]: Non-Toxic
Activity [22]: inactive
inhibition in vivo at 15 mg/kg [24]: 86.7%
inhibition in vivo at 7.5 mg/kg [26]: 70.1%
Activity [27]: inactive
inhibition [28]: Active
Activity [30]: 51.5%
Activity [33]: Non-Toxic
IC50 [34]: > 40000 nM
Activity [35]: Active
Activity [37]: inactive
Activity [38]: inactive
Activity [39]: Non-Toxic
Activity [40]: Active
Activity [41]: inactive
